Test results: PMC11995724, “Antibiotic target discovery by integrated phenotypic and activity-based profiling of electrophilic fragments” (Cell chemical biology, 2025)

Assay: in vitro
Settings: human, hek293t cells

SMILES	viability at 48 h, 25 µM
COc1cc(C=C(C#N)C(N)=O)ccc1OC(F)F [8-P08, 2-cyano-3-[4-(difluoromethoxy)-3-methoxyphenyl]prop-2-enamide]	82.2%
COC(=O)c1c(NC(=O)CCl)sc2c1CCC(C(C)(C)C)C2 (stereo not drawn) [4-J19, methyl 6-tert-butyl-2-(2-chloroacetamido)-4,5,6,7-tetrahydro-1-benzothiophene-3-carboxylate]	69.6%
C=CC(=O)NCc1ccc2oc(=O)n(C)c2c1 [2-L15, N-[(3-methyl-2-oxo-2,3-dihydro-1,3-benzoxazol-5-yl)methyl]prop-2-enamide]	55%
CC1=C(c2ccco2)CN(C(=O)CCl)CC1 [5-H05, 2-chloro-1-[5-(furan-2-yl)-4-methyl-1,2,3,6-tetrahydropyridin-1-yl]ethan-1-one]	69.1%
CCOc1ccc(C(=O)C(C)Cl)cc1 (stereo not drawn) [10-G06, 2-chloro-1-(4-ethoxyphenyl)propan-1-one]	89.3%
N#CC(=Cc1ccc(O)c(O)c1)C(=O)Nc1cccc(Cl)c1Cl [8-F07, 2-cyano-N-(2,3-dichlorophenyl)-3-(3,4-dihydroxyphenyl)prop-2-enamide]	77.6%
Cc1nn(C)c(C)c1NC(=O)C(C)Cl (stereo not drawn) [6-C07, 2-chloro-N-(1,3,5-trimethyl-1H-pyrazol-4-yl)propanamide]	116%
C=CC(=O)Nc1cc(C)n(CC(C)c2nnc3n2CCCCC3)n1 (stereo not drawn) [2-A17, N-[5-methyl-1-(2-{5H,6H,7H,8H,9H-[1,2,4]triazolo[4,3-a]azepin-3-yl}propyl)-1H-pyrazol-3-yl]prop-2-enamide]	175%
C=CC(=O)N[C@H](C)c1cnnn1C [3-B11, N-[(1R)-1-(1-methyl-1H-1,2,3-triazol-5-yl)ethyl]prop-2-enamide]	73.8%
O=C(Nc1ccc(F)cc1)N1CCSSCC1 [10-D21, N-(4-fluorophenyl)-1,2,5-dithiazepane-5-carboxamide]	84%
Cc1ccc(NC(=O)C(C#N)=Cc2cccc([N+](=O)[O-])c2)cc1 [8-J17, 2-cyano-N-(4-methylphenyl)-3-(3-nitrophenyl)prop-2-enamide]	88.1%
CC(C)NC(=O)C(C#N)=Cc1ccc(Cl)c(Cl)c1 [9-M07, 2-cyano-3-(3,4-dichlorophenyl)-N-(propan-2-yl)prop-2-enamide]	30.2%
N#CC(=Cc1ccsc1)C(=O)Nc1cccc2ccccc12 [9-M09, 2-cyano-N-(naphthalen-1-yl)-3-(thiophen-3-yl)prop-2-enamide]	120%
CCC(=O)Nc1ccc(C(=O)CCl)cc1 [10-C03, N-[4-(2-chloroacetyl)phenyl]propanamide]	74.1%
C=CC(=O)NC(Cn1cncn1)c1ccccc1 (stereo not drawn) [3-F17, N-[1-phenyl-2-(1H-1,2,4-triazol-1-yl)ethyl]prop-2-enamide]	71.9%
CN(CC(=O)NC1CCC(O)CC1)C(=O)CCl (stereo not drawn) [7-L08, 2-chloro-N-{[(4-hydroxycyclohexyl)carbamoyl]methyl}-N-methylacetamide]	0.707%
C=CC(=O)NC1CCC(S(C)(=O)=O)C1 (stereo not drawn) [3-F18, N-(3-methanesulfonylcyclopentyl)prop-2-enamide]	94.3%
C=CC(=O)Nc1cc(CC(C)(C)C)no1 [1-I19, N-[3-(2,2-dimethylpropyl)-1,2-oxazol-5-yl]prop-2-enamide]	1.69%
C=CC(=O)NCc1ccc(C(=O)N2CCCC2C(=O)N(C)C)cc1 (stereo not drawn) [2-D22, N,N-dimethyl-1-{4-[(prop-2-enamido)methyl]benzoyl}pyrrolidine-2-carboxamide]	71.2%
CC(C)Oc1ccccc1C=C(C#N)C(=O)Nc1ccc(Cl)cc1 [9-L20, N-(4-chlorophenyl)-2-cyano-3-[2-(propan-2-yloxy)phenyl]prop-2-enamide]	89.4%
C=CC(=O)N(CC)Cc1cccc2c1OCO2 [3-I05, N-[(1,3-dioxaindan-4-yl)methyl]-N-ethylprop-2-enamide]	47.8%
C=CC(=O)NCCc1c(C)oc2ccccc12 [1-N07, N-[2-(2-methyl-1-benzofuran-3-yl)ethyl]prop-2-enamide]	119%
COc1cc2c(cc1NC(=O)C(C)Cl)oc1ccccc12 (stereo not drawn) [6-G09, 2-chloro-N-{4-methoxy-8-oxatricyclo[7.4.0.0,2,7]trideca-1(9),2(7),3,5,10,12-hexaen-5-yl}propanamide]	93%
Cc1nc(C#N)c(N2CCN(C(=O)CCl)CC2)o1 [5-L18, 5-[4-(2-chloroacetyl)piperazin-1-yl]-2-methyl-1,3-oxazole-4-carbonitrile]	1.74%
C=CC(=O)NCc1cscn1 [1-I07, N-[(1,3-thiazol-4-yl)methyl]prop-2-enamide]	69.5%
C=CC(=O)NC(=O)NCc1ccccc1 [1-I04, 1-benzyl-3-(prop-2-enoyl)urea]	0.515%
C=CC(=O)NC(C)Cn1cc(C(=O)O)cn1 (stereo not drawn) [3-D10, 1-[2-(prop-2-enamido)propyl]-1H-pyrazole-4-carboxylic acid]	96%

SMILES	viability at 48 h, 25 µM
O=C(O)C(c1ccccc1)N1C(=O)C=CC1=O (stereo not drawn) [10-E21, 2-(2,5-dioxo-2,5-dihydro-1H-pyrrol-1-yl)-2-phenylacetic acid]	92.4%
COc1c(C)cnc(CN2CCC(N(C)C(=O)C(C)Cl)CC2)c1C (stereo not drawn) [6-A04, 2-chloro-N-{1-[(4-methoxy-3,5-dimethylpyridin-2-yl)methyl]piperidin-4-yl}-N-methylpropanamide]	124%
Cc1cc(C(=O)CCl)c(C)n1-c1ccccc1 [10-L20, 2-chloro-1-(2,5-dimethyl-1-phenyl-1H-pyrrol-3-yl)ethan-1-one]	1.11%
COc1ccc2c(c1)CCCN(C(=O)C(C)Cl)C2 (stereo not drawn) [5-D17, 2-chloro-1-(7-methoxy-2,3,4,5-tetrahydro-1H-2-benzazepin-2-yl)propan-1-one]	90.9%
C=CC(=O)N1CCC(C(=O)NCCc2cc[nH]n2)CC1 [3-E07, 1-(prop-2-enoyl)-N-[2-(1H-pyrazol-3-yl)ethyl]piperidine-4-carboxamide]	34.2%
O=C1C=CC(=O)N1c1cc([N+](=O)[O-])ccc1Cl [10-H15, 1-(2-chloro-5-nitrophenyl)-2,5-dihydro-1H-pyrrole-2,5-dione]	126%
C=CC(=O)N1CCOC(c2cnn(C)c2)C1 (stereo not drawn) [3-K11, 1-[2-(1-methyl-1H-pyrazol-4-yl)morpholin-4-yl]prop-2-en-1-one]	49.9%
O=C(CCl)Nc1cc(-n2cnnn2)ccc1Cl [6-A05, 2-chloro-N-[2-chloro-5-(1H-1,2,3,4-tetrazol-1-yl)phenyl]acetamide]	0.726%
CC(c1cccc([N+](=O)[O-])c1)N(C)C(=O)CCl (stereo not drawn) [6-G06, 2-chloro-N-methyl-N-[1-(3-nitrophenyl)ethyl]acetamide]	1.19%
CC(Cl)C(=O)NCC(=O)N(C)Cc1cccnc1 (stereo not drawn) [7-P15, 2-chloro-N-({methyl[(pyridin-3-yl)methyl]carbamoyl}methyl)propanamide]	91.3%
COc1ccc(C=C(C#N)C(=O)Nc2cccc(Cl)c2)cc1 [8-I09, N-(3-chlorophenyl)-2-cyano-3-(4-methoxyphenyl)prop-2-enamide]	80%
COc1cc(C=C(C#N)C(N)=O)cc(OC)c1OC [9-K13, 2-cyano-3-(3,4,5-trimethoxyphenyl)prop-2-enamide]	129%
C=CC(=O)NCCN1C(=O)COc2ccccc21 [2-P07, N-[2-(3-oxo-3,4-dihydro-2H-1,4-benzoxazin-4-yl)ethyl]prop-2-enamide]	60.4%
CCn1c2ccccc2c2cc(NC(=O)CCl)ccc21 [4-D06, 2-chloro-N-(9-ethyl-9H-carbazol-3-yl)acetamide]	9.48%
O=C(Cc1cccc(F)c1)N1CCSSCC1 [10-L21, 1-(1,2,5-dithiazepan-5-yl)-2-(3-fluorophenyl)ethan-1-one]	108%
C=CC(=O)N(CC)CC(=O)N1CCCC1c1ccc(F)cc1C (stereo not drawn) [2-F08, N-ethyl-N-{2-[2-(4-fluoro-2-methylphenyl)pyrrolidin-1-yl]-2-oxoethyl}prop-2-enamide]	74.7%
Cc1noc(C)c1C(C)CNC(=O)C(C)Cl (stereo not drawn) [6-P19, 2-chloro-N-[2-(3,5-dimethyl-1,2-oxazol-4-yl)propyl]propanamide]	115%
C=CC(=O)NC1CCC(n2c(C)ccc2C)CC1 (stereo not drawn) [2-E19, N-[4-(2,5-dimethyl-1H-pyrrol-1-yl)cyclohexyl]prop-2-enamide]	71.1%
Cc1cccc(NC(=O)c2ccccc2NC(=O)CCl)c1 [4-C10, 2-(2-chloroacetamido)-N-(3-methylphenyl)benzamide]	-0.0841%
Cc1ccc(C)c(C=C(C#N)C(=O)NC(C)C)c1 [9-O22, 2-cyano-3-(2,5-dimethylphenyl)-N-(propan-2-yl)prop-2-enamide]	125%
C=CC(=O)NC(c1ccc(F)cc1)c1nccn1C (stereo not drawn) [2-N09, N-[(4-fluorophenyl)(1-methyl-1H-imidazol-2-yl)methyl]prop-2-enamide]	45.3%
CCN(CC)S(=O)(=O)c1ccc(Cl)c(NC(=O)C(C)Cl)c1 (stereo not drawn) [6-C20, 2-chloro-N-[2-chloro-5-(diethylsulfamoyl)phenyl]propanamide]	79.6%
Cn1ncc2ccc(CNC(=O)N3CCSSCC3)cc21 [10-A20, N-[(1-methyl-1H-indazol-6-yl)methyl]-1,2,5-dithiazepane-5-carboxamide]	93.8%
CC(Cl)C(=O)Nc1ccc2c(c1)CCC2 (stereo not drawn) [5-C19, 2-chloro-N-(2,3-dihydro-1H-inden-5-yl)propanamide]	68.8%
N#CC(=Cc1cc(F)ccc1F)C(=O)Nc1ccc(Cl)cc1Cl [8-O08, 2-cyano-N-(2,4-dichlorophenyl)-3-(2,5-difluorophenyl)prop-2-enamide]	68.1%
CC(Cl)C(=O)N1CCOCC(n2cccn2)C1 (stereo not drawn) [6-H22, 2-chloro-1-[6-(1H-pyrazol-1-yl)-1,4-oxazepan-4-yl]propan-1-one]	105%
CC(Cl)C(=O)N1CCCN(c2ccc(-c3ccccc3)nn2)CC1 (stereo not drawn) [7-L15, 2-chloro-1-[4-(6-phenylpyridazin-3-yl)-1,4-diazepan-1-yl]propan-1-one]	76.7%
